Laboratory results: US10227331B2 (priority 2015, dated 2019)

How the values were obtained:
[1] = system: P. aeruginosa expressing IMP-1, efflux+ (MB9798); assay type: cell-based, Pseudomonas aeruginosa; conditions: for P. aeruginosa expressing IMP-1, efflux+ (MB9798) MITC95: imipenem at 2 μg/mL, in the presence of a class A, C, D serine β-lactamase inhibitor closely related to relebactam; for Efflux ratio: ratio MITC95 PA_9798/MITC95 PA_9799
Source text: (§1) The strain background is Pseudomonas aeruginosa PAO1.

IMP-1 = IMP-1 (Serratia marcescens, UniProt P52699); experiment: biochemical; assay type: biochemical; conditions: CCF2-FA substrate, 2 hours at 25° C; read-out: IMP-1 IC50
Sequence of IMP-1 (P52699 whole entry, looked up, species assumed): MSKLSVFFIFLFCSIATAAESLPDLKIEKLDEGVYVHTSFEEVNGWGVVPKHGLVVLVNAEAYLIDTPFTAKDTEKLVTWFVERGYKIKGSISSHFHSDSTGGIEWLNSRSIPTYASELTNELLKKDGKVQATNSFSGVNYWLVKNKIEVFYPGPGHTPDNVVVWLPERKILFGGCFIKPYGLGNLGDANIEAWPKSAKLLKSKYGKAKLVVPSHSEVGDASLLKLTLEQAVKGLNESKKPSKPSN
How it was run: (§2)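 Fluorescence assay, CCF2-FA substrate (cephalosporin core linking 7-hydroxycoumarin to fluorescein); inhibitor + MBL + substrate, 2 h, 25° C. IC50 by 4-parameter fit, semi-log plot.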

NDM-1 = NDM-1 (Klebsiella pneumoniae, UniProt C7C422); experiment: biochemical; assay type: biochemical; conditions: CCF2-FA substrate, 2 hours at 25° C; read-out: NDM-1 IC50
Sequence of NDM-1 (C7C422 whole entry, looked up, species assumed): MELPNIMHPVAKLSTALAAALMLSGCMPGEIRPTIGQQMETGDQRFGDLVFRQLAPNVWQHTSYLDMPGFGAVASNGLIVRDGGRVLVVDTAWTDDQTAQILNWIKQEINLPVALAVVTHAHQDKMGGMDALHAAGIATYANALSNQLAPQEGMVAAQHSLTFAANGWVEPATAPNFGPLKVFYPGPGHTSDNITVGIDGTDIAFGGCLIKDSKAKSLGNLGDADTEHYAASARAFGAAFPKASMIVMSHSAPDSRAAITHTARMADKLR
How it was run: as §2

[2] = system: Klebsiella pneumoniae expressing VIM-1 (IHMA599644); assay type: cell-based; conditions: with imipenem 1 μg/ml, 95% inhibition of bacterial growth; for Klebsiella pneumoniae MITC95: VIM-1 (IHMA599644)
How it was run: (§3)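 Colonies from overnight 35 °C blood-agar cultures were suspended in saline, diluted 1:100 into 1.1× CAMHB and exposed to test compound with or without imipenem at 1 μg/ml. After 22–24 h at 35 °C, absorbance was read to find the concentration restoring imipenem susceptibility.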

[3] = system: Serratia marcescens expressing IMP-1 (CL5741); assay type: cell-based; conditions: with imipenem 1 μg/ml, 95% inhibition of bacterial growth; for Serratia marcescens MITC95: IMP-1 (CL5741)
How it was run: as §3

[4] = system: Escherichia coli expressing NDM-1 (CLB30005, CLB30016); assay type: cell-based; conditions: with imipenem 1 μg/ml, 95% inhibition of bacterial growth; for Escherichia coli MITC95: NDM-1 (CLB30016)
How it was run: as §3

[5] = system: P. aeruginosa expressing IMP-1, efflux− (MB9799); experiment: Efflux: concentration of MBL inhibitor which restores susceptibility to imipenem; assay type: cell-based, Pseudomonas aeruginosa; conditions: imipenem at 2 μg/mL, in the presence of a class A, C, D serine β-lactamase inhibitor closely related to relebactam
Source text: as §1

VIM-1 = VIM-1 (Pseudomonas aeruginosa (strain ATCC 15692 / DSM 22644 / CIP 104116 / JCM 14847 / LMG 12228 / 1C / PRS 101 / PAO1), UniProt A0A0F7KYQ8); experiment: biochemical; conditions: CCF2-FA substrate, 2 hours at 25° C
How it was run: as §2

CS(=O)(=O)Nc1nc2c(-c3ccc(S(=O)(=O)C4CCNCC4)c(S(N)(=O)=O)c3-c3nn[nH]n3)cccc2s1 [Example 325, 3-(2-(methylsulfonamido)benzo[d]thiazol-4-yl)-6-(piperidin-4-ylsulfonyl)-2-(2H-tetrazol-5-yl)benzenesulfonamide]
P. aeruginosa expressing IMP-1, efflux+ (MB9798) MITC95 [1]: 6.25 µM | Efflux ratio [1]: 1.00 | IC50 (IMP-1): 0.239 nM | IC50 (NDM-1): 0.0723 nM | Klebsiella pneumoniae MITC95 [2]: 25 µM | Serratia marcescens MITC95 [3]: 12.5 µM | Escherichia coli MITC95 [4]: 12.5 µM | P. aeruginosa expressing IMP-1, efflux− (MB9799) MITC95 [5]: 6.25 µM | IC50 (VIM-1): 0.346 nM

Nc1nc2cccc(-c3ccc(S(=O)(=O)[C@H]4CC[C@H](N)CC4)c(S(N)(=O)=O)c3-c3nn[nH]n3)c2[nH]1 [Example 178, 3-(2-amino-3H-benzo[d]imidazol-4-yl)-6-((1r,4r)-4-aminocyclohexylsulfonyl)-2-(2H-tetrazol-5-yl)benzenesulfonamide]
P. aeruginosa expressing IMP-1, efflux+ (MB9798) MITC95 [1]: 0.7813 µM | Efflux ratio [1]: 1.00 | IC50 (IMP-1): 0.99 nM | IC50 (NDM-1): 0.275 nM | Klebsiella pneumoniae expressing VIM-1 (IHMA599644) MITC95 [2]: 1.563 µM | Serratia marcescens expressing IMP-1 (CL5741) MITC95 [3]: 0.7813 µM | Escherichia coli expressing NDM-1 (CLB30016) MITC95 [4]: 0.3906 µM | P. aeruginosa expressing IMP-1, efflux− (MB9799) MITC95 [5]: 0.7813 µM | IC50 (VIM-1): 0.66 nM

NCCS(=O)(=O)c1ccc(-c2ccnc3c2CCCC3)c(-c2nn[nH]n2)c1S(N)(=O)=O [Example 271, 6-(2-aminoethylsulfonyl)-3-(5,6,7,8-tetrahydroquinolin-4-yl)-2-(2H-tetrazol-5-yl)benzenesulfonamide]
P. aeruginosa expressing IMP-1, efflux+ (MB9798) MITC95 [1]: 12.5 µM | Efflux ratio [1]: 8.00 | IC50 (IMP-1): 0.687 nM | IC50 (NDM-1): 1.33 nM | Klebsiella pneumoniae MITC95 [2]: 3.125 µM | Serratia marcescens MITC95 [3]: 3.125 µM | Escherichia coli MITC95 [4]: 3.125 µM | P. aeruginosa expressing IMP-1, efflux− (MB9799) MITC95 [5]: 1.563 µM | IC50 (VIM-1): 0.177 nM

NCCS(=O)(=O)c1ccc(-c2ccc3nncn3c2)c(-c2nnn[nH]2)c1S(N)(=O)=O.O=C(O)C(F)(F)F [Example 146, 2-((4-([1,2,4]triazolo[4,3-a]pyridin-6-yl)-2-sulfamoyl-3-(1H-tetrazol-5-yl)phenyl)sulfonyl)ethanaminium 2,2,2-trifluoroacetate]
P. aeruginosa expressing IMP-1, efflux+ (MB9798) MITC95 [1]: 100 µM | Efflux ratio [1]: 63.98 | IC50 (IMP-1): 44.4 nM | IC50 (NDM-1): 20.6 nM | Klebsiella pneumoniae expressing VIM-1 (IHMA599644) MITC95 [2]: 6.25 µM | Serratia marcescens expressing IMP-1 (CL5741) MITC95 [3]: 3.125 µM | Escherichia coli expressing NDM-1 (CLB30016) MITC95 [4]: 0.7813 µM | P. aeruginosa expressing IMP-1, efflux− (MB9799) MITC95 [5]: 1.563 µM | IC50 (VIM-1): 1.32 nM

NS(=O)(=O)c1c(S(=O)(=O)C2CNC2)ccc(-c2cccc3[nH]cnc23)c1-c1nn[nH]n1 [Example 332, 6-(Azetidin-3-ylsulfonyl)-3-(1H-benzo[d]imidazol-4-yl)-2-(2H-tetrazol-5-yl)benzenesulfonamide]
P. aeruginosa expressing IMP-1, efflux+ (MB9798) MITC95 [1]: 6.25 µM | Efflux ratio [1]: 4.00 | IC50 (IMP-1): 0.557 nM | IC50 (NDM-1): 0.124 nM | Klebsiella pneumoniae MITC95 [2]: 3.125 µM | Serratia marcescens MITC95 [3]: 1.563 µM | Escherichia coli MITC95 [4]: 0.7813 µM | P. aeruginosa expressing IMP-1, efflux− (MB9799) MITC95 [5]: 1.563 µM | IC50 (VIM-1): 0.275 nM

CS(=O)(=O)N1CCC(S(=O)(=O)c2ccc(-c3cccc4nc(N)[nH]c34)c(-c3nn[nH]n3)c2S(N)(=O)=O)CC1 [Example 45, 3-(2-amino-3H-benzo[d]imidazol-4-yl)-6-(1-(methylsulfonyl)piperidin-4-ylsulfonyl)-2-(2H-tetrazol-5-yl)benzenesulfonamide]
P. aeruginosa expressing IMP-1, efflux+ (MB9798) MITC95 [1]: 50 µM | Efflux ratio [1]: 16.00 | IC50 (IMP-1): 1.69 nM | IC50 (NDM-1): 0.29 nM | Klebsiella pneumoniae expressing VIM-1 (IHMA599644) MITC95 [2]: 6.25 µM | Serratia marcescens expressing IMP-1 (CL5741) MITC95 [3]: 6.25 µM | Escherichia coli expressing NDM-1 (CLB30016) MITC95 [4]: 25 µM | P. aeruginosa expressing IMP-1, efflux− (MB9799) MITC95 [5]: 3.125 µM | IC50 (VIM-1): 0.135 nM

NC[C@H](N)CS(=O)(=O)c1ccc(-c2ccc(N)nc2)c(-c2nn[nH]n2)c1S(N)(=O)=O [Example 372, (S)-3-(6-aminopyridin-3-yl)-6-((2,3-diaminopropyl)sulfonyl)-2-(2H-tetrazol-5-yl) benzenesulfonamide]
P. aeruginosa expressing IMP-1, efflux+ (MB9798) MITC95 [1]: 3.125 µM | Efflux ratio [1]: 2.00 | IC50 (IMP-1): 1.43 nM | IC50 (NDM-1): 1.17 nM | Klebsiella pneumoniae MITC95 [2]: 3.125 µM | Serratia marcescens MITC95 [3]: 1.563 µM | Escherichia coli MITC95 [4]: 0.7813 µM | P. aeruginosa expressing IMP-1, efflux− (MB9799) MITC95 [5]: 1.563 µM | IC50 (VIM-1): 0.992 nM

CC(=O)Nc1nc2c(-c3ccc(S(=O)(=O)CCN)c(S(N)(=O)=O)c3-c3nn[nH]n3)cccc2s1 [Example 82, N-(4-(4-(2-aminoethylsulfonyl)-3-sulfamoyl-2-(2H-tetrazol-5-yl)phenyl)benzo[d]thiazol-2-yl)acetamide]
P. aeruginosa expressing IMP-1, efflux+ (MB9798) MITC95 [1]: 3.125 µM | Efflux ratio [1]: 2.00 | IC50 (IMP-1): 0.194 nM | IC50 (NDM-1): 0.0871 nM | Klebsiella pneumoniae expressing VIM-1 (IHMA599644) MITC95 [2]: 3.125 µM | Serratia marcescens expressing IMP-1 (CL5741) MITC95 [3]: 1.563 µM | Escherichia coli expressing NDM-1 (CLB30016) MITC95 [4]: 1.563 µM | P. aeruginosa expressing IMP-1, efflux− (MB9799) MITC95 [5]: 1.563 µM | IC50 (VIM-1): 0.131 nM

NCCS(=O)(=O)c1ccc(-c2cccc3cc(N)ncc23)c(-c2nn[nH]n2)c1S(N)(=O)=O [Example 73, 6-(2-aminoethylsulfonyl)-3-(3-aminoisoquinolin-8-yl)-2-(2H-tetrazol-5-yl)benzenesulfonamide]
P. aeruginosa expressing IMP-1, efflux+ (MB9798) MITC95 [1]: 1.563 µM | Efflux ratio [1]: 1.00 | IC50 (IMP-1): 0.214 nM | IC50 (NDM-1): 0.109 nM | Klebsiella pneumoniae expressing VIM-1 (IHMA599644) MITC95 [2]: 3.125 µM | Serratia marcescens expressing IMP-1 (CL5741) MITC95 [3]: 3.125 µM | Escherichia coli expressing NDM-1 (CLB30016) MITC95 [4]: 0.7813 µM | P. aeruginosa expressing IMP-1, efflux− (MB9799) MITC95 [5]: 1.563 µM | IC50 (VIM-1): 0.241 nM

Cn1c(N)nc2c(-c3ccc(S(=O)(=O)CCCN)c(S(N)(=O)=O)c3-c3nn[nH]n3)cccc21 [Example 195, 3-(2-amino-1-methyl-1H-benzo[d]imidazol-4-yl)-6-(3-aminopropylsulfonyl)-2-(2H-tetrazol-5-yl)benzenesulfonamide]
P. aeruginosa expressing IMP-1, efflux+ (MB9798) MITC95 [1]: 0.7813 µM | Efflux ratio [1]: 1.00 | IC50 (IMP-1): 0.251 nM | IC50 (NDM-1): 0.26 nM | Klebsiella pneumoniae expressing VIM-1 (IHMA599644) MITC95 [2]: 1.563 µM | Serratia marcescens expressing IMP-1 (CL5741) MITC95 [3]: 0.7813 µM | Escherichia coli expressing NDM-1 (CLB30016) MITC95 [4]: 0.3906 µM | P. aeruginosa expressing IMP-1, efflux− (MB9799) MITC95 [5]: 0.7813 µM | IC50 (VIM-1): 0.155 nM

NS(=O)(=O)c1c(S(=O)(=O)C2CNC2)ccc(-c2cnc(N3CCCC3)s2)c1-c1nnn[nH]1.O=C(O)C(F)(F)F [Example 121, 3-((4-(2-(pyrrolidin-1-yl)thiazol-5-yl)-2-sulfamoyl-3-(1H-tetrazol-5-yl)phenyl)sulfonyl)azetidin-1-ium 2,2,2-trifluoroacetate]
P. aeruginosa expressing IMP-1, efflux+ (MB9798) MITC95 [1]: 200 µM | Efflux ratio [1]: 127.96 | IC50 (IMP-1): 3.57 nM | IC50 (NDM-1): 0.74 nM | Klebsiella pneumoniae expressing VIM-1 (IHMA599644) MITC95 [2]: 6.25 µM | Serratia marcescens expressing IMP-1 (CL5741) MITC95 [3]: 3.125 µM | Escherichia coli expressing NDM-1 (CLB30016) MITC95 [4]: 0.7813 µM | P. aeruginosa expressing IMP-1, efflux− (MB9799) MITC95 [5]: 1.563 µM | IC50 (VIM-1): 1.44 nM
